Key:
histamine H2 -receptors [1] = biological target: T1, histamine H2 -receptors (Cavia porcellus, UniProt P47747); experiment: guinea pig atrium test: inhibition of histamine-induced tachycardia in isolated right atrium; format: biochemical; details: histamine-induced rate increase, 60 min contact, read-out: pA2 (converted)
T1 construct: a spontaneously beating isolated portion of the guinea pig right atrium; from tissue; host or cells: isolated guinea pig right atrium
Procedure: In the guinea pig atrium test a spontaneously beating isolated portion of the guinea pig right atrium is secured under tension (300 mg) between an anchorage and a transducer in a 15 ml tissue bath and immersed in McEwens solution with constant aeration at a temperature of 37° C. The output from the transducer is amplified. Output is in turn fed to a flat bed recorder. Measured amounts of histamine are added to the tissue bath so that the histamine concentration increases step-wise until the rate of beating reaches a maximum. The tissue bath is washed out and filled with fresh McEwens solution containing compound under test. The solution is left in contact with the tissue for 60 min. and measured amounts of histamine are added again until a maximum rate is recorded. The assay is repeated with increasing concentrations of test compound and the dose of histamine giving 50% of maximum rate is noted. A dose ratio (DR) was calculated by comparing the concentrations of histamine required to produce 50% maximum response in the absence and in the presence of the antagonist. A plot of Log DR-1 against LOG D (the concentration of compound under test) is made and the point of intersection with the Log (DR-1) ordinate is taken as the measure of the activity (pA2 value).

histamine H2 -receptors [2] = biological target: T2, histamine H2 -receptors (Rattus norvegicus, UniProt P25102); experiment: lumen-perfused rat test: inhibition of histamine-stimulated secretion of gastric acid; format: in vivo; details: iv, lumen-perfused stomachs of rats anaesthetised with urethane, read-out: ED50 (for inhibiting sub-maximal acid secretion by 50%)
T2 construct: histamine-stimulated secretion of gastric acid from the lumen-perfused stomachs of rats anaesthetised with urethane; from tissue; host or cells: lumen-perfused stomach of urethane-anaesthetised female Sprague-Dawley rats (in vivo)
Text: These are actions of histamine which, according to Ash and Schild, Brit. J. Pharmac. Chemother. 27 247 (1966), are not mediated by histamine H1 -receptors.
Inhibition of histamine-stimulated secretion of gastric acid can be measured by using a lumen-perfused stomachs of rats anaesthetised with urethane using the following modification of the method of Ghosh and Schild, Brit. J. Pharmac. Chemother. 13 54 (1958):
Female Sprague-Dawley rats (160-200 g) are starved overnight and anaesthetised with urethane given intraperitoneally in one dose (200 mg). The trachea and jugular veins are both cannulated and a mid-line incision is made in the abdomen exposing the stomach which is cleared from connective tissue. […] The effluent is passed over a micro-flow pH electrode and recorded by a pH meter fed to an anti-log unit and flat-bed recorder. The basal output of acid secretion from the stomach is monitored by measurement of the pH of the perfusion effluent. A sub-maximal dose of histamine is continuously infused into the jugular vein and produces a stable plateau of acid secretion and the pH of the perfusion effluent is determined when this condition is obtained. […] The difference in acid secretion between basal output and the histamine stimulated plateau level and the reduction of acid secretion caused by the test compound are calculated from the difference in pH of the perfusion effluent. […]

T2 sequence (P25102 whole entry, the tested form may be a part): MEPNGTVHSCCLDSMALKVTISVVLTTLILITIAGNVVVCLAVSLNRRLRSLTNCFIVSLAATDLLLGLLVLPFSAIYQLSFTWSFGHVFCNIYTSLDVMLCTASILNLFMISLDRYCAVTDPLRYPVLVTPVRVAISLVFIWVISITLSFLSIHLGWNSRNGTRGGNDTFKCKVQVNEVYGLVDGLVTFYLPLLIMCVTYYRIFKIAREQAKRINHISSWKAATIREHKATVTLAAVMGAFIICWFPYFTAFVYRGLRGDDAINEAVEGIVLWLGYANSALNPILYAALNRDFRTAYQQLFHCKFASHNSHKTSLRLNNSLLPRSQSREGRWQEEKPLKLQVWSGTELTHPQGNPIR
T1 sequence (P47747 whole entry): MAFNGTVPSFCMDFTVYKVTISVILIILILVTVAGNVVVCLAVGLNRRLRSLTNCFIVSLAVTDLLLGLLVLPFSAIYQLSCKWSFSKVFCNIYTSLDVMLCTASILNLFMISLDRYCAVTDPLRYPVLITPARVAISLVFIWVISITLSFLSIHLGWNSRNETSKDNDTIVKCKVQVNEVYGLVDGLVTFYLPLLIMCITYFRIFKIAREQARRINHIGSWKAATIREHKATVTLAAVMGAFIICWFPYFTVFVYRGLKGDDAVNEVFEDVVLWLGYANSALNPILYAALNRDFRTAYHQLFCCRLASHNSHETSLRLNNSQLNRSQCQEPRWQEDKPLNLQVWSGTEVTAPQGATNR

| Kb (histamine H2 -receptors [1]) | ED50 (histamine H2 -receptors [2]) | Structure (SMILES) |
| --- | --- | --- |
| < 100 nM | < 0.1 µmol/kg | CNC(=NCCSCc1cc(CN(C)C)ccn1)NC#N [Example 1, N-cyano-N'-methyl-N"-[2-(4-dimethylaminomethyl-2-pyridylmethylthio)ethyl]-guanidine] |
| < 100 nM | < 0.1 µmol/kg | CNC(=C[N+](=O)[O-])NCCSCc1cc(CN(C)C)ccn1 [Example 2, 1-nitro-2-methylamino-2-[2-(4-dimethylaminomethyl-2-pyridylmethylthio)ethylamino]-ethylene] |

Reference: US4574126A, “Pyridine derivatives histamine H2 -antagonists” (Smith Kline & French Laboratories Limited, priority 1982, dated 1986)
